Our source for the inhibition and CC50 values is patent publication US20140303164A1, “THERAPEUTIC COMPOUNDS” (Gilead Sciences, Inc., priority 2013, published 2014).

The subject of one data set is HIV-IIIb. In words: Test A: Antiviral Assay in MT4 Cells. The data set is classed as cell-based, HIV-1. Particulars: Human immunodeficiency virus 1, IIIB, MT4, 120 h; for inhibition at 0.2 µM: read-out: % inhibition at 0.2 μM; for inhibition at 2 µM: read-out: % inhibition at 2 μM. On the procedure:
Test A: Antiviral Assay in MT4 Cells
MT-4 cells were next mixed with HIV-IIIb at an m.o.i of 0.003 for 1 hour, after which time 35 μL of virus/cell mixture (2000 cells) was immediately added to each well containing 40 μL of diluted compound. The plates were then incubated at 37° C. for 5 days. […] Cell lysis was carried out by incubating at room temperature for 10 min and then chemiluminescence was read.

A short description of data set [1]: Test B: Cytotoxicity Assay. The data set is classed as cell-based. The following applies: human, uninfected MT-4 cells, same protocol as Test A. The method in brief: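 Uninfected MT-4 cells (2000 per well) incubated with diluted compound at 37° C. for 5 days, following the antiviral protocol without HIV-IIIb.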

Structures are written as SMILES.

In general, inhibition refers to the share of the control response that was lost under treatment. For orientation: CC50 means the concentration giving 50% cytotoxicity. A higher CC50 goes with better tolerance by the cells. As to `Cn1nc(NS(C)(=O)=O)c2c(Cl)ccc(-c3ccc(C#CC(C)(C)O)nc3[C@H](Cc3cc(F)cc(F)c3)NC(=O)Cn3ncc4c3C(F)(F)[C@@H]3C[C@H]43)c21` [Compound 150, N—((S)-1-(3-(4-chloro-1-methyl-3-(methylsulfonamido)-1H-indazol-7-yl)-6-(3-hydroxy-3-methylbut-1-yn-1-yl)pyridin-2-yl)-2-(3,5-difluorophenyl)ethyl)-2-((3bS,4aR)-5,5-difluoro-3b,4,4a,5-tetrahydro-1H-cyclopropa[3,4]cyclopenta[1,2-c]pyrazol-1-yl)acetamide], in the data set on HIV-IIIb, the inhibition at 0.2 µM came to 87% and the inhibition at 2 µM is 87%. For the same molecule, the cytotoxic concentration (CC50) at 5 days in data set [1] was determined as 28.9 µM.
Take `CNc1nnc2c(-c3ccc(C#CC(C)(C)O)nc3[C@H](Cc3cc(F)cc(F)c3)NC(=O)Cn3nc(C(F)F)c4c3C(F)(F)[C@@H]3C[C@H]43)cccn12` [Compound 76F, 2-((3bS,4aR)-3-(difluoromethyl)-5,5-difluoro-3b,4,4a,5-tetrahydro-1H-cyclopropa[3,4]cyclopenta[1,2-c]pyrazol-1-yl)-N—((S)-2-(3,5-difluorophenyl)-1-(6-(3-hydroxy-3-methylbut-1-yn-1-yl)-3-(3-(methylamino)-[1,2,4]triazolo[4,3-a]pyridin-8-yl)pyridin-2-yl)ethyl)acetamide]: in the data set on HIV-IIIb, the inhibition at 0.2 µM came out at 98% and the inhibition at 2 µM came to 98%. Moreover, in data set [1], the CC50 at 5 days was 22.6 µM.
With `CNCC(=O)Nc1nn(C)c2c(-c3ccc(C#CC(C)(C)O)nc3[C@H](Cc3cc(F)cc(F)c3)NC(=O)Cn3nc(C(F)F)c4c3C(F)(F)[C@@H]3C[C@H]43)ccc(Cl)c12` [Compound 101, N—((S)-1-(3-(4-chloro-1-methyl-3-(2-(methylamino)acetamido)-1H-indazol-7-yl)-6-(3-hydroxy-3-methylbut-1-yn-1-yl)pyridin-2-yl)-2-(3,5-difluorophenyl)ethyl)-2-((3bS,4aR)-3-(difluoromethyl)-5,5-difluoro-3b,4,4a,5-tetrahydro-1H-cyclopropa[3,4]cyclopenta[1,2-c]pyrazol-1-yl)acetamide], in the data set on HIV-IIIb, the inhibition at 0.2 µM amounted to 95% and the inhibition at 2 µM stood at 95%. Further, the half-maximal cytotoxic concentration (CC50) at 5 days in data set [1] is 6.53 µM.
In the case of `Cc1[nH]c2ccc(O)cc2c1CC(=O)N[C@@H](Cc1cc(F)cc(F)c1)c1nc(C#CC(C)(C)O)ccc1-c1ccc(Cl)c2c(NS(C)(=O)=O)nn(C)c12` [Compound 192, (S)—N-(1-(3-(4 chloro-1-methyl-3-(methylsulfonamido)-1H-indazol-7-yl)-6-(3-hydroxy-3-methylbut-1-yn-1-yl)pyridin-2-yl)-2-(3,5-difluorophenyl)ethyl)-2-(5-hydroxy-2-methyl-1H-indol-3-yl)acetamide], in the data set with HIV-IIIb, the inhibition at 0.2 µM turned out to be 95% and the inhibition at 2 µM was 98%. It took 28.8 µM to reach half-maximal cytotoxicity in data set [1] (CC50 at 5 days).
As to `Cn1nc(O)c2cccc(-c3ccc(C#CC(C)(C)O)nc3[C@H](Cc3cc(F)cc(F)c3)NC(=O)Cn3nc(C(F)F)c4c3C(F)(F)[C@@H]3C[C@H]43)c21` [Compound 107B, 2-((3bS,4aR)-3-(difluoromethyl)-5,5-difluoro-3b,4,4a,5-tetrahydro-1H-cyclopropa[3,4]cyclopenta[1,2-c]pyrazol-1-yl)-N—((S)-2-(3,5-difluorophenyl)-1-(6-(3-hydroxy-3-methylbut-1-yn-1-yl)-3-(1-methyl-3-oxo-2,3-dihydro-1H-indazol-7-yl)pyridin-2-yl)ethyl)acetamide], in the data set on HIV-IIIb, the inhibition at 0.2 µM came to 95% and the inhibition at 2 µM was found to be 95%. The 50% cytotoxic concentration (CC50) at 5 days in data set [1] was found to be 5.3 µM.
Turning to `Cc1c(CCO)c(C2CC2)nn1CC(=O)N[C@@H](Cc1cc(F)cc(F)c1)c1nc(C#CC(C)(C)O)ccc1-c1ccc(Cl)c2c(NS(C)(=O)=O)nn(C)c12` [Compound 167, (S)—N-(1-(3-(4 chloro-1-methyl-3-(methylsulfonamido)-1H-indazol-7-yl)-6-(3-hydroxy-3-methylbut-1-yn-1-yl)pyridin-2-yl)-2-(3,5-difluorophenyl)ethyl)-2-(3-cyclopropyl-4-(2-hydroxyethyl)-5-methyl-1H-pyrazol-1-yl)acetamide], in the data set with HIV-IIIb, the inhibition at 0.2 µM worked out at 93% and the inhibition at 2 µM came out at 93%. This molecule had a CC50 at 5 days in data set [1] of 34.1 µM.
As for `Cn1nc(NS(N)(=O)=O)c2c(Cl)ccc(-c3ccc(C#CC(C)(C)O)nc3[C@H](Cc3cc(F)cc(F)c3)NC(=O)Cn3nc(C(F)F)c4c3C(F)(F)CCC4(F)F)c21` [Compound 122, (S)—N-(1-(3-(4 chloro-1-methyl-3-(sulfamoylamino)-1H-indazol-7-yl)-6-(3-hydroxy-3-methylbut-1-yn-1-yl)pyridin-2-yl)-2-(3,5-difluorophenyl)ethyl)-2-(3-(difluoromethyl)-4,4,7,7-tetrafluoro-4,5,6,7-tetrahydro-1H-indazol-1-yl)acetamide], in the data set on HIV-IIIb, the inhibition at 0.2 µM stood at 88% and the inhibition at 2 µM was 88%. In addition, the midpoint of cytotoxicity in data set [1], the CC50 at 5 days, lay at 9.07 µM.
Take `CCn1nc(N)c2cccc(-c3ccc(C#CC(C)(C)O)nc3[C@H](Cc3cc(F)cc(F)c3)NC(=O)Cn3nc(C(F)(F)F)c4c3C(F)(F)[C@@H]3C[C@H]43)c21` [Compound 45G, N—((S)-1-(3-(3-amino-1-ethyl-1H-indazol-7-yl)-6-(3-hydroxy-3-methylbut-1-yn-1-yl)pyridin-2-yl)-2-(3,5-difluorophenyl)ethyl)-2-((3b-S,4aR)-5,5-difluoro-3-(trifluoromethyl)-3b,4,4a,5-tetrahydro-1H-cyclopropa[3,4]cyclopenta[1,2-c]pyrazol-1-yl)acetamide]: in the data set with HIV-IIIb, the inhibition at 0.2 µM is 92% and the inhibition at 2 µM is 92%. In data set [1], this molecule registered a CC50 at 5 days of 10.4 µM.
With `Cn1nc(NS(C)(=O)=O)c2c(Cl)ccc(-c3ccc(C#CC(C)(C)O)nc3[C@H](Cc3cc(F)cc(F)c3)NC(=O)Cn3nc(C(F)(F)F)c4c3CCCC4)c21` [Compound 124, (S)—N-(1-(3-(4 chloro-1-methyl-3-(methylsulfonamido)-1H-indazol-7-yl)-6-(3-hydroxy-3-methylbut-1-yn-1-yl)pyridin-2-yl)-2-(3,5-difluorophenyl)ethyl)-2-(3-(trifluoromethyl)-4,5,6,7-tetrahydro-1H-indazol-1-yl)acetamide], in the data set with HIV-IIIb, the inhibition at 0.2 µM was 97% and the inhibition at 2 µM stood at 97%. This molecule registered a 50% cytotoxic concentration (CC50) at 5 days in data set [1] of 9.14 µM.
For `Cn1nc(NS(C)(=O)=O)c2c(Cl)ccc(-c3ccc(C#CC(C)(C)O)nc3[C@H](Cc3cc(F)cc(F)c3)NC(=O)Cc3ccc4ccccc4c3)c21` [Compound 200, (S)—N-(1-(3-(4 chloro-1-methyl-3-(methylsulfonamido)-1H-indazol-7-yl)-6-(3-hydroxy-3-methylbut-1-yn-1-yl)pyridin-2-yl)-2-(3,5-difluorophenyl)ethyl)-2-(naphthalen-2-yl)acetamide], in the data set with HIV-IIIb, the inhibition at 0.2 µM came to 89% and the inhibition at 2 µM was 90%. In data set [1], this molecule yielded a CC50 at 5 days of 12.2 µM.
Take `Cn1nc(NS(C)(=O)=O)c2c(Cl)ccc(-c3ccc(C#CC(C)(C)O)nc3[C@H](Cc3cc(F)cc(F)c3)NC(=O)Cn3nc(C(F)F)c4c3C3CC3CC4)c21` (stereo partly drawn) [Compound 83, N—((S)-1-(3-(4-chloro-1-methyl-3-(methylsulfonamido)-1H-indazol-7-yl)-6-(3-hydroxy-3-methylbut-1-yn-1-yl)pyridin-2-yl)-2-(3,5-difluorophenyl)ethyl)-2-(3-(difluoromethyl)-5,5a,6,6a-tetrahydrocyclopropa[g]indazol-1(4H)-yl)acetamide]: in the data set on HIV-IIIb, the inhibition at 0.2 µM stood at 94% and the inhibition at 2 µM was determined as 94%. For the same molecule, it took 9.94 µM to reach half-maximal cytotoxicity in data set [1] (CC50 at 5 days).
